In ChEMBL document CHEMBL6127060, “Bioisosteric replacement of the carboxylic acid group in Hepatitis-C virus NS5B thumb site II inhibitors: phenylalanine derivatives” (Eur J Med Chem, 2024):

Tests used:
[1] = biological target: Hepatitis C virus NS5B RNA-dependent RNA polymerase (Hepatitis C virus, UniProt Q8JXU8); assay: Inhibition of Hepatitis C virus NS5B polymerase; design: species or system Hepacivirus hominis
Hepatitis C virus [2] = assay: Antiviral activity against Hepatitis C virus genotype 1b infected in human Huh-7 cells assessed as inhibition of viral growth incubated for 3 days; format: functional, organism-based, Hepacivirus hominis; settings: Huh-7, 72 h
[3] = Cytotoxicity against human Huh-7 cells assessed as cell viability; format: toxicity, cell-based
Hepatitis C virus [4] = assay: Antiviral activity against Hepatitis C virus; format: functional, organism-based, Hepacivirus hominis

Chain of Hepatitis C virus NS5B RNA-dependent RNA polymerase (Q8JXU8 whole entry): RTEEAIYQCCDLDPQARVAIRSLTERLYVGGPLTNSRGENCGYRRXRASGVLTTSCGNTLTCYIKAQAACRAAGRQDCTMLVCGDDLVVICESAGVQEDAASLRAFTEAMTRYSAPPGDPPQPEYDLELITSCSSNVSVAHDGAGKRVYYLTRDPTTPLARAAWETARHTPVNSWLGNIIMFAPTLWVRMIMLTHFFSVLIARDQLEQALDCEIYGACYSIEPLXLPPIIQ

| Compound | IC50 [1] [µM] | EC50 (Hepatitis C virus [2]) [µM] | CC50 [3] [µM] | EC50 (Hepatitis C virus [4]) [µM] |
| --- | --- | --- | --- | --- |
| O=C(O)[C@H](Cc1ccccc1)N(Cc1cccc([N+](=O)[O-])c1)C(=O)c1ccc(Cl)cc1Cl | 0.7 |  |  |  |
| O=C(O)[C@H](Cc1ccccc1)N(Cc1cccc(C(F)(F)F)c1)C(=O)c1ccc(Cl)cc1Cl | 1.7 |  |  |  |
| N#Cc1cccc(CN(C(=O)c2ccc(Cl)cc2Cl)[C@@H](Cc2ccccc2)C(=O)O)c1 | 0.8 |  |  |  |
| N/C(=N\O)C(Cc1ccccc1)N(Cc1cccc(F)c1)C(=O)c1ccc(Cl)cc1Cl (stereo not given) |  | > 50 | > 50 |  |
| O=C(c1ccc(Cl)cc1Cl)N(Cc1cccc(C(F)(F)F)c1)C(Cc1ccccc1)c1noc(=O)[nH]1 (stereo not given) |  | > 50 | 49.2 |  |
| N/C(=N\O)C(Cc1ccccc1)N(Cc1cccc([N+](=O)[O-])c1)C(=O)c1ccc(Cl)cc1Cl (stereo not given) |  | 11.3 | 18.2 |  |
| O=C(c1ccc(Cl)cc1Cl)N(Cc1cccc(Br)c1)C(Cc1ccccc1)c1noc(=O)[nH]1 (stereo not given) |  | > 50 | > 50 |  |
| N#CC(Cc1ccccc1)N(Cc1cccc(Br)c1)C(=O)c1ccc(Cl)cc1Cl (stereo not given) |  | > 50 | > 50 |  |
| CC(C)(C)C(=O)OCn1c(C(Cc2ccccc2)N(Cc2cccc([N+](=O)[O-])c2)C(=O)c2ccc(Cl)cc2Cl)noc1=S (stereo not given) |  | > 50 | > 50 |  |
| O=C(c1ccc(Cl)cc1Cl)N(Cc1cccc(F)c1)C(Cc1ccccc1)c1noc(=O)[nH]1 (stereo not given) |  | > 50 | > 50 |  |
| O=C(c1ccc(Cl)cc1Cl)N(Cc1cccc(C(F)(F)F)c1)C(Cc1ccccc1)c1noc(=S)[nH]1 (stereo not given) |  | > 50 | > 50 |  |
| Cn1c(C(Cc2ccccc2)N(Cc2cccc(C(F)(F)F)c2)C(=O)c2ccc(Cl)cc2Cl)noc1=S (stereo not given) |  | 8.09 | > 50 |  |
| O=C(c1ccc(Cl)cc1Cl)N(Cc1cccc([N+](=O)[O-])c1)C(Cc1ccccc1)c1noc(=O)[nH]1 (stereo not given) |  | > 50 | > 50 |  |
| CC1CCC(C(=O)N(C)c2ccc(Oc3ccccc3C(F)(F)F)cc2C(=O)O)CC1 (stereo not given) | 0.2 |  |  | 1.1 |
| N#CC(Cc1ccccc1)N(Cc1cccc([N+](=O)[O-])c1)C(=O)c1ccc(Cl)cc1Cl (stereo not given) |  | 5.19 | > 50 |  |
| CC(C)(C)C(=O)OCn1c(C(Cc2ccccc2)N(Cc2cccc(C(F)(F)F)c2)C(=O)c2ccc(Cl)cc2Cl)noc1=S (stereo not given) |  | > 50 | > 50 |  |
| O=C(c1ccc(Cl)cc1Cl)N(Cc1cccc([N+](=O)[O-])c1)C(Cc1ccccc1)c1noc(=S)[nH]1 (stereo not given) |  | > 50 | > 50 |  |
| N#CC(Cc1ccccc1)N(Cc1cccc(F)c1)C(=O)c1ccc(Cl)cc1Cl (stereo not given) |  | 3.72 | > 50 |  |
| N#CC(Cc1ccccc1)N(Cc1cccc(C(F)(F)F)c1)C(=O)c1ccc(Cl)cc1Cl (stereo not given) |  | > 50 | > 50 |  |
| N/C(=N\O)C(Cc1ccccc1)N(Cc1cccc(Br)c1)C(=O)c1ccc(Cl)cc1Cl (stereo not given) |  | 6.36 | 16.1 |  |
| O=C(c1ccc(Cl)cc1Cl)N(Cc1cccc(Br)c1)C(Cc1ccccc1)c1noc(=S)[nH]1 (stereo not given) |  | > 50 | > 50 |  |
| O=C(c1ccc(Cl)cc1Cl)N(Cc1cccc(F)c1)C(Cc1ccccc1)c1noc(=S)[nH]1 (stereo not given) |  | > 50 | > 50 |  |
| N/C(=N\O)C(Cc1ccccc1)N(Cc1cccc(C(F)(F)F)c1)C(=O)c1ccc(Cl)cc1Cl (stereo not given) |  | 3.91 | 11 |  |
| CC1=CC[C@H](C(=O)N(c2cc(C#CC(C)(C)C)sc2C(=O)O)[C@H]2CC[C@](O)(CO[C@H]3CCOC3)CC2)CC1 [RADALBUVIR] |  | 0.052 | > 50 |  |
